Experiments:
[1] = tested on: P. falciparum female gametocytes; experiment: P. falciparum Dual Gamete Formation Assay (PfDGFA), female readout (Pfs25-positive female gametes); format: cell-based, Plasmodium falciparum NF54; conditions: for IC50: this study, read-out: Pf DGFA IC50 FEM
How it was run: (§1)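 Two sex-specific readouts come from one well: male exflagellation centres recorded by brightfield video right after activation, and female gametes scored by Cy3-anti-Pfs25 fluorescence after 24 h at 28°C.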

HepG2 cells = experiment: HepG2 cytotoxicity counter-screen; conditions: for Mean TOX: mean of the HepG2 TOX50 values; for DGFA Tox50 HepG2: HepG2 value reported with the DGFA screen
[2] = tested on: P. falciparum male gametocytes; experiment: P. falciparum Dual Gamete Formation Assay (PfDGFA), male readout (exflagellation); format: cell-based, Plasmodium falciparum NF54; conditions: for IC50: this study, read-out: Pf DGFA IC50 MALE
How it was run: as §1

SMILES | Cytotox ratio Pf Female [1] | IC50 [1] | Mean TOX (HepG2 cells) | Cytotox ratio Pf Male [2] | IC50 [2] | DGFA Tox50 HepG2 (HepG2 cells)
CCn1c(-c2nonc2N)nc2c(-c3ccccc3)ncc(OCCCNCCCN3CCOCC3)c21.O=C(O)C(F)(F)F [TC62] | 2.5 | 6490 nM | 16.12 µM | 11.8 | 1370 nM | –
COCCn1c(Sc2ncnc3sccc23)nc2ccccc21 [TC65] | 94.3 | 1060 nM | 100.00 µM | 81.3 | 1230 nM | 100 µM
CS(=O)(=O)Cc1ccc(Nc2ncc(Cl)c(Nc3cccnc3C(N)=O)n2)cc1.Cl [TC68] | 10.0 | – | 100.00 µM | 16.0 | 6250 nM | 100 µM
Cl.O=C1Nc2ccc3ncccc3c2/C1=C/Nc1ccc(N2CCN(CCO)CC2)cc1 [TC71] | 3.4 | – | 33.87 µM | 225.8 | 150 nM | –
CN(C)c1ccnc2ccc(NC(=O)Nc3ccnc4ccccc34)cc12 [TC74] | 3.8 | 5920 nM | 22.68 µM | 13.3 | 1700 nM | –
CC(CO)(CO)NCc1cc2c3ccccc3c(CNC(C)(CO)CO)cc2c2ccccc12.CS(=O)(=O)O [TC76] | 2.7 | 4790 nM | 13.04 µM | 15.0 | 870 nM | –

— article PMC10584170, “Machine learning-based phenotypic imaging to characterise the targetable biology of Plasmodium falciparum male gametocytes for the development of transmission-blocking antimalarials” (PLOS Pathogens, 2023)
